The values that follow are results of earlier work, collected in patent US20240082296A1, “TREATMENT OF MUSCLE ATROPHY USING DEXTRAN SULFATE” (TX MEDIC AB, priority 2020, published 2024).

In the series the test system is mouse model of muscle atrophy. Particulars: after 2 weeks of treatment; cited from earlier work.

With “recombinant HGF: recombinant hepatocyte growth factor, a naturally occurring neuroprotective and myogenic growth factor”, the “increase in muscle mass” value is 18%.
